Converted amounts (≈) assume the structure as drawn.
Experiments:
[1] = Test for concentration in blood (plasma of mouse, bioassay); assay type: in vivo; conditions: sc, subcutaneous, 2 mg/mouse, average on five mice; for Cmax: bioassay with Comamonas terrigena B-996, read-out: Maximum concentration; for half-life: read-out: Half period (period that elapsed until the concentration was reduced to half)
Description: Typical species of the compounds of formula (VI-b) were each administered subcutaneously to five mice in a dose of 2 mg. After 5 minutes from the administration, a small amount of blood was periodically drawn from the eyes of the mice into a heparinized capillary tube, and centrifuged. The concentration of the compound in the supernatant liquid (plasma) was determined by a bioassay method using Comamonas terri^gena B-996.

[2] = test system: Staphylococcus aureus Smith strain; experiment: Infection treating test (CD50); assay type: in vivo; conditions: in Mus musculus, sc, 2 h, mice infected intraperitoneally with 5 x 10^5 cells per mouse, subcutaneous injection two hours after the infection
Description: The in vivo activities of the compounds of formula (VI-b) were determined by using mice (five per group, male DDY mice, Shizuoka) which had been intraperitoneally infected with Staphylococcus aureus Smith strain in an amount of 5 x 10^5 cells per mouse. Two hours after the infection, an injection containing a sodium salt of each of the compounds of formula (VI-b) was subcutaneously administered to the mice.

[3] = test system: Staphylococcus epidermidis; experiment: MIC, agar dilution assay; assay type: cell-based; conditions: 20 h, 35°C for 20 hours, read-out: Antibiotic Activity minimum inhibitory concentration
Description: (§1) The antibiotic activities shown in Tables 1-1 to 1-9 above were determined in the following manner. The minimum inhibitory concentrations of the compounds of formula (VI-b) in Tables I-1 to 1-8 and the known compounds in Table 1-9 on the various microorganisms shown in the above tables were measured by an agar dilution assay method using a brain heart infusion agar medium "Difco" (a product of Difco Laboratories Inc.). A sample of the test compound was dissolved in sterile distilled water and diluted to prepare a twofold dilution series of the compound solution. In a betri dish of 9 cm in diameter, 1 ml of the compound solution was added to 9 ml of a molten sterile heart infusion agar medium (Difco Laboratories Inc.) at. about 60°C to prepare an agar plate containing the compound. An overnight culture of each test organism indicated in the above table, which was prepared by stationary cultivation in trypto-soy broth (Eiken Chemi. Co., Ltd.) at 35°C for 18 to 20 hours, was diluted with the trypto-soy broth to give approximately 10^8 cells/ml and the diluted inoculum was inoculated in the agar plate. After cultivating the plate at 35°C for 20 hours, the growth of the organism was observed. The minimum concentration of the compound at which no growth of the microorganism was noted was determined, and defined as the minimum inhibitory concentration of the test compound.

[4] = test system: Comamonas terrigena B-996; experiment: MIC, agar dilution assay; assay type: cell-based; conditions: Comamonas terrigena, B996, 20 h, 35°C for 20 hours, read-out: Antibiotic Activity minimum inhibitory concentration
Description: as §1

[5] = test system: Staphylococcus aureus Smith; experiment: MIC, agar dilution assay; assay type: cell-based; conditions: Staphylococcus aureus, 20 h, 35°C for 20 hours, read-out: Antibiotic Activity minimum inhibitory concentration
Description: as §1

[6] = test system: Enterobacter cloacae 45; experiment: MIC, agar dilution assay; assay type: cell-based; conditions: Enterobacter cloacae, 45, 20 h, 35°C for 20 hours, read-out: Antibiotic Activity minimum inhibitory concentration
Description: as §1

[7] = test system: Citrobacter freundii GN 346; experiment: MIC, agar dilution assay; assay type: cell-based; conditions: GN346, 20 h, 35°C for 20 hours, read-out: Antibiotic Activity minimum inhibitory concentration
Description: as §1

[8] = test system: Staphylococcus aureus FDA 209P; experiment: MIC, agar dilution assay; assay type: cell-based; conditions: Staphylococcus aureus, FDA209P, 20 h, 35°C for 20 hours, read-out: Antibiotic Activity minimum inhibitory concentration
Description: as §1

[9] = test system: Staphylococcus aureus Russell; experiment: MIC, agar dilution assay; assay type: cell-based; conditions: Staphylococcus aureus, 20 h, 35°C for 20 hours, read-out: Antibiotic Activity minimum inhibitory concentration
Description: as §1

[10] = test system: Enterobacter aerogenes E19; experiment: MIC, agar dilution assay; assay type: cell-based; conditions: Klebsiella aerogenes, E19, 20 h, 35°C for 20 hours, read-out: Antibiotic Activity minimum inhibitory concentration
Description: as §1

[11] = test system: Bacillus subtilis ATCC 6633; experiment: MIC, agar dilution assay; assay type: cell-based; conditions: Bacillus subtilis, ATCC6633, 20 h, 35°C for 20 hours, read-out: Antibiotic Activity minimum inhibitory concentration
Description: as §1

[12] = test system: Proteus mirabilis P6; experiment: MIC, agar dilution assay; assay type: cell-based; conditions: P6, 20 h, 35°C for 20 hours, read-out: Antibiotic Activity minimum inhibitory concentration
Description: as §1

[13] = test system: Enterobacter sp. E8; experiment: MIC, agar dilution assay; assay type: cell-based; conditions: Enterobacter, SP.E8, 20 h, 35°C for 20 hours, read-out: Antibiotic Activity minimum inhibitory concentration
Description: as §1

[14] = test system: Klebsiella pneumoniae K-13; experiment: MIC, agar dilution assay; assay type: cell-based; conditions: K13, 35°C for 20 hours, read-out: Antibiotic Activity minimum inhibitory concentration
Description: as §1

[15] = test system: Escherichia coli RGN 823; experiment: MIC, agar dilution assay; assay type: cell-based; conditions: RGN823, 20 h, 35°C for 20 hours, read-out: Antibiotic Activity minimum inhibitory concentration
Description: as §1

[16] = test system: Sarcina lutea; experiment: MIC, agar dilution assay; assay type: cell-based; conditions: Micrococcus luteus, 20 h, 35°C for 20 hours, read-out: Antibiotic Activity minimum inhibitory concentration
Description: as §1

[17] = test system: Escherichia coli K-12; experiment: MIC, agar dilution assay; assay type: cell-based; conditions: Escherichia coli, K12, 20 h, 35°C for 20 hours, read-out: Antibiotic Activity minimum inhibitory concentration
Description: as §1

[18] = test system: Alcaligenes faecalis A 1; experiment: MIC, agar dilution assay; assay type: cell-based; conditions: Alcaligenes faecalis, A1, 20 h, 35°C for 20 hours, read-out: Antibiotic Activity minimum inhibitory concentration
Description: as §1

[19] = test system: S. aureus; experiment: Disc diffusion assay in nutrient broth containing 10% horse serum; assay type: cell-based
Description: The compounds of formula (I) provided by this invention show excellent antimicrobial activities in in vitro tests in horse serum as shown in Table IV below.

| Structure (SMILES) | Cmax [1] [ng/mL] | half-life [1] [min] | ED50 [2] [mg/kg] | further results |
| --- | --- | --- | --- | --- |
| CC(O)[C@H]1C(=O)N2C(C(=O)O)=C(Sc3ccncc3)C[C@H]12 (relative stereo) [Table II r7 R1=-OH R2=[drawing] M=H*] | 103000 | 18 | 0.125 | – |
| CC(O)[C@@H]1C(=O)N2C(C(=O)O)=C(Sc3ccncc3)C[C@H]12 (relative stereo) [Table II r8 R1=-OH R2=[drawing] M=H**] | 29000 | 13.5 | 0.125 | – |
| CC(O)[C@H]1C(=O)N2C(C(=O)O)=C(Sc3ncccn3)C[C@H]12 (relative stereo) [Table II r12 R1=-OH R2=[drawing] M=H*] | 54000 | 25 | 0.25 | – |
| CC(O)[C@@H]1C(=O)N2C(C(=O)O)=C(Sc3ncccn3)C[C@H]12 (relative stereo) [Table II r13 R1=-OH R2=[drawing] M=H**] | 23300 | 19 | 0.25 | – |
| CC(=O)NCCSC1=C(C(=O)O)N2C(=O)[C@H](C(C)O)[C@H]2C1 (stereo partly shown) [PS-3A.Na, 3-(2-acetamidoethylthio)-6-(1-hydroxyethyl)-7-oxo-1-azabicyclo[3.2.0]hept-2-ene-2-carboxylic acid, reference compound] | – | – | 4 | – |
| CC(=O)NCCSC1=C(C(=O)O)N2C(=O)C(C(C)O)C2C1 (stereo not shown) [PS-3B.Na, 3-(2-acetamidoethylthio)-6-(1-hydroxyethyl)-7-oxo-1-azabicyclo[3.2.0]hept-2-ene-2-carboxylic acid, reference compound] | 26300 | 5 | – | – |
| CCC1C(=O)N2C(C(=O)O)=C(SCCNC(C)=O)CC12 (stereo not shown) [PS-5.Na, 3-(2-acetamidoethylthio)-6-ethyl-7-oxo-1-azabicyclo[3.2.0]hept-2-ene-2-carboxylic acid, reference compound] | 40000 | 7 | 1 | – |
| CC(=O)NCCSC1=C(C(=O)O)N2C(=O)C(C(C)C)C2C1 (stereo not shown) [PS-6.Na, 3-(2-acetamidoethylthio)-6-isopropyl-7-oxo-1-azabicyclo[3.2.0]hept-2-ene-2-carboxylic acid, reference compound] | 23800 | 5 | 8 | – |
| CC(C)C1C(=O)N2C(C(=O)O)=C(SCCN(C)C)CC12 (stereo not shown) [R1=-CH3 R2=-CH2CH2N(CH3)2 M=H] | 22000 | 6.1 | 2 | – |
| CCC1C(=O)N2C(C(=O)O)=C(SCCN(C)C)CC12 (stereo not shown) [R1=H R2=-CH2CH2N(CH3)2 M=H] | 36200 | 6 | 0.25 | – |
| CCC1C(=O)N2C(C(=O)O)=C(SCCNC(=O)Cc3ccccc3)CC12 (stereo not shown) [R1=H R2=-CH2CH2NHCOCH2-[drawing] M=Na] | 2800 | 6 | – | – |
| CCC1C(=O)N2C(C(=O)O)=C(SCCO)CC12 (stereo not shown) [R1=H R2=-CH2CH2OH M=Na] | 36900 | 6 | 1 | – |
| CC(C)C1C(=O)N2C(C(=O)O)=C(Sc3ccccn3)CC12 (stereo not shown) [Table I-2 R1=-CH3] | – | – | – | MIC [3]: 0.05 µg/mL (≈ 0.164 µM); MIC [4]: 0.007 µg/mL (≈ 0.023 µM); MIC [5]: 0.013 µg/mL (≈ 0.0427 µM); MIC [6]: > 100 µg/mL; MIC [7]: 50 µg/mL (≈ 164 µM); MIC [8]: 0.007 µg/mL (≈ 0.023 µM); MIC [9]: 0.013 µg/mL (≈ 0.0427 µM); MIC [10]: 50 µg/mL (≈ 164 µM); MIC [11]: 0.05 µg/mL (≈ 0.164 µM); MIC [12]: 6.25 µg/mL (≈ 20.5 µM); MIC [13]: 25 µg/mL (≈ 82.1 µM); MIC [14]: 50 µg/mL (≈ 164 µM); MIC [15]: 12.5 µg/mL (≈ 41.1 µM); MIC [16]: 0.004 µg/mL (≈ 0.0131 µM); MIC [17]: 12.5 µg/mL (≈ 41.1 µM); MIC [18]: 0.2 µg/mL (≈ 0.657 µM) |
| CCC1C(=O)N2C(C(=O)O)=C(Sc3ccccn3)CC12 (stereo not shown) [Table I-2 R1=H] | – | – | – | MIC [3]: 0.012 µg/mL (≈ 0.0413 µM); MIC [4]: 0.003 µg/mL (≈ 0.0103 µM); MIC [5]: 0.012 µg/mL (≈ 0.0413 µM); MIC [6]: 50 µg/mL (≈ 172 µM); MIC [7]: 25 µg/mL (≈ 86.1 µM); MIC [8]: 0.006 µg/mL (≈ 0.0207 µM); MIC [9]: 0.012 µg/mL (≈ 0.0413 µM); MIC [10]: 25 µg/mL (≈ 86.1 µM); MIC [11]: 0.012 µg/mL (≈ 0.0413 µM); MIC [12]: 3.13 µg/mL (≈ 10.8 µM); MIC [13]: 12.5 µg/mL (≈ 43.1 µM); MIC [14]: 25 µg/mL (≈ 86.1 µM); MIC [15]: 6.25 µg/mL (≈ 21.5 µM); MIC [16]: 0.0008 µg/mL (≈ 0.00276 µM); MIC [17]: 6.25 µg/mL (≈ 21.5 µM); MIC [18]: 0.1 µg/mL (≈ 0.344 µM) |
| CCC1C(=O)N2C(C(=O)O)=C(Sc3ccncc3)CC12 (stereo not shown) [Table II r5 R1=H R2=[drawing] M=H] | 70700 | 16 | 0.063 | – |
| CC(C)C1C(=O)N2C(C(=O)O)=C(Sc3ccncc3)CC12 (stereo not shown) [Table II r6 R1=-CH3 R2=[drawing] M=H] | 30700 | 15.2 | 0.5 | – |
| CCC1C(=O)N2C(C(=O)O)=C(Sc3ccccn3)CC12 (stereo not shown) [Table II r9 R1=H R2=[drawing] M=H] | 48400 | 29 | 0.125 | – |
| CCC1C(=O)N2C(C(=O)O)=C(Sc3ncccn3)CC12 (stereo not shown) [Table II r10 R1=H R2=[drawing] M=H] | 23600 | 22 | 0.25 | – |
| CC(C)C1C(=O)N2C(C(=O)O)=C(Sc3ncccn3)CC12 (stereo not shown) [Table II r11 R1=-CH3 R2=[drawing] M=H] | 21200 | 18.2 | 1 | – |
| CCC1C(=O)N2C(C(=O)O)=C(SC3CCCCC3)CC12 (stereo not shown) [Table II r14 R1=H R2=[drawing] M=Na] | 8240 | 7.2 | – | – |
| CCC1C(=O)N2C(C(=O)O)=C(Sc3ccccc3)CC12 (stereo not shown) [Table II r15 R1=H R2=[drawing] M=Na] | 11300 | 25.2 | – | – |
| CCC1C(=O)N2C(C(=O)OC)=C(Br)CC12 (stereo not drawn) [Table IV r4 R=H X=Br M=CH3, methyl 3-bromo-6-ethyl-7-oxo-l-azabicyclo[3.2.0]hept-2-ene-2-carboxylate] | – | – | – | Inhibitory zone diameter [19]: 29.7 mm |
| CCC1C(=O)N2C(C(=O)OCc3ccccc3)=C(Br)CC12 (stereo not shown) [Table IV r5 R=H X=Br M=[drawing]] | – | – | – | Inhibitory zone diameter [19]: 30.2 mm |
| CCC1C(=O)N2C(C(=O)OCc3ccc([N+](=O)[O-])cc3)=C(Br)CC12 (stereo not shown) [Table IV r6 R=H X=Br M=[drawing]] | – | – | – | Inhibitory zone diameter [19]: 28.6 mm |
| CC(C)C1C(=O)N2C(C(=O)OCc3ccc([N+](=O)[O-])cc3)=C(Br)CC12 (stereo not shown) [Table IV r7 R=CH3 X=Br M=[drawing]] | – | – | – | Inhibitory zone diameter [19]: 26.8 mm |
| CC(O)C1C(=O)N2C(C(=O)OCc3ccc([N+](=O)[O-])cc3)=C(Br)CC12 (stereo not shown) [Table IV r8 R=OH X=Br M=[drawing]] | – | – | – | Inhibitory zone diameter [19]: 31.2 mm |
| CCC1C(=O)N2C(C(=O)OC)=C(I)CC12 (stereo not drawn) [Table IV r9 R=H X=I M=CH3, methyl 3-iodo-6-ethyl-7-oxo-l-azabicyclo[3.2.0]hept-2-ene-2-carboxylate] | – | – | – | Inhibitory zone diameter [19]: 29.6 mm |
| CCC1C(=O)N2C(C(=O)OCc3ccccc3)=C(I)CC12 (stereo not shown) [Table IV r10 R=H X=I M=[drawing]] | – | – | – | Inhibitory zone diameter [19]: 30.0 mm |
| COC(=O)C1=C(I)CC2C(C(C)O)C(=O)N12 (stereo not shown) [Table IV r11 R=OH X=I M=CH3] | – | – | – | Inhibitory zone diameter [19]: 31.0 mm |
